The source of these data is patent publication US20240336612A1, “BRM Targeting Compounds And Associated Methods Of Use” (Prelude Therapeutics Incorporated, priority 2021, published 2024).

Assay [1] deals with T1, SMARCA2 (Homo sapiens, UniProt P51531).
T1 construct: SMARCA2-HiBiT knock-in Hela monoclonal cell (CS302366); host or cells: HeLa (HiBiT knock-in monoclonal line)
In words: SMARCA2 HiBiT degradation assay in HeLa cells. To be noted: 18 hours incubation; for DC50: read-out: DC50 (SM2-HeLa), SMARCA2 degradation potency; for Dmax: read-out: Dmax % (SM2-HeLa), maximum SMARCA2 degradation within the concentrations tested. The format is cell-based. On the procedure:
(§1) SMARCA2 HiBiT and SMARCA4 HiBiT Degradation Assay (cellular)
(§2) Preparation of SMARCA2/4-HiBiT Knock-In Cells
(§3) SMARCA2-HiBiT knock-in Hela monoclonal cell (CS302366) and SMARCA4-HiBiT knock-in Hela monoclonal cell (CS3023226) were purchased from Promega. The heterozygous HiBiT-knock-in was confirmed by sanger sequence in both SMARCA2-HiBiT and SMARCA4-HiBiT monoclonal cells.
(§4) SMARCA2 HiBiT and SMARCA4 HiBiT Degradation Assay in HeLa Cells
(§5) Dispense 10 μL aliquot of prepared Hela-SMARCA2-HiBiT or Hela-SMARCA4-HiBiT cells (1:1 ratio of cells:Trypan Blue (#1450013, Bio-Rad)) onto cell counting slide (#145-0011, Bio-Rad) and obtain cell density and cell viability using cell counter (TC20, Bio-Rad). Remove appropriate volume of resuspended cells from culture flask to accommodate 2500 cells/well @ 20 μL/well. Transfer Hela-HiBiT cells to 50 ml conical (#430290, Corning). Spin down at 1000 rpm for 5 min using tabletop centrifuge (SPINCHRON 15, Beckman). Discard supernatant and resuspend cell pellet in modified EMEM (#30-2003, ATCC) cell culture media containing 10% FBS (F2422-500ML, Sigma), and 1× Penicillin/Streptomycin (200 g/l) (30-002-CI, Corning) to a cell density of 125,000 cells/ml. Dispense 20 μL of resuspended Hela-HiBit cells per well in 384-well TC treated plate (#12-565-343, Thermo Scientific) using standard cassette (#50950372, Thermo Scientific) on Multidrop Combi (#5840310, Thermo Scientific) inside laminar flow cabinet. Dispense test compounds onto plates using digital liquid dispenser (D300E, Tecan). Incubate plates in humidified tissue culture incubator @37° C. for 18 hours. Add 20 ul of prepared Nano-Glo® HiBiT Lytic detection buffer (N3050, Promega) to each well of 384-well plate using small tube cassette (#24073295, Thermo Scientific) on Multidrop Combi, incubate @ RT for 30-60 min. Read plates on microplate reader (Envision 2105, PerkinElmer) using 384 well Ultra-Sensitive luminescence mode. Raw data files and compound information reports are swept into centralized data lake and deconvoluted using automated scripts designed by TetraScience, Inc. Data analysis, curve-fitting and reporting done in Dotmatics Informatics Suite using Screening Ultra module.
(§6) The results are shown below in Table 4 for the HiBiT assay. In Table 4, the DC50/Dmax% (SM2-HeLa) refers to SMARCA2 degradation potency/maximum SMARCA2 degradation within the concentrations tested in HeLa HiBiT assay. In Table 4, the DC50/Dmax% (SM4-HeLa) refers to SMARCA4 degradation potency/maximum SMARCA4 degradation within the concentrations tested in HeLa HiBiT assay.

Assay [2] addresses T2, SMARCA4 (Homo sapiens, UniProt P51532).
T2 construct: SMARCA4-HiBiT knock-in Hela monoclonal cell (CS3023226); host or cells: HeLa (HiBiT knock-in monoclonal line)
Briefly: SMARCA4 HiBiT degradation assay in HeLa cells. To be noted: 18 hours incubation; for DC50: read-out: DC50 (SM4-HeLa), SMARCA4 degradation potency; for Dmax: read-out: Dmax % (SM4-HeLa), maximum SMARCA4 degradation within the concentrations tested. The format is cell-based. On the procedure:
as §1, §2, §3, §4, §5, §6

T1 sequence (P51531 whole entry): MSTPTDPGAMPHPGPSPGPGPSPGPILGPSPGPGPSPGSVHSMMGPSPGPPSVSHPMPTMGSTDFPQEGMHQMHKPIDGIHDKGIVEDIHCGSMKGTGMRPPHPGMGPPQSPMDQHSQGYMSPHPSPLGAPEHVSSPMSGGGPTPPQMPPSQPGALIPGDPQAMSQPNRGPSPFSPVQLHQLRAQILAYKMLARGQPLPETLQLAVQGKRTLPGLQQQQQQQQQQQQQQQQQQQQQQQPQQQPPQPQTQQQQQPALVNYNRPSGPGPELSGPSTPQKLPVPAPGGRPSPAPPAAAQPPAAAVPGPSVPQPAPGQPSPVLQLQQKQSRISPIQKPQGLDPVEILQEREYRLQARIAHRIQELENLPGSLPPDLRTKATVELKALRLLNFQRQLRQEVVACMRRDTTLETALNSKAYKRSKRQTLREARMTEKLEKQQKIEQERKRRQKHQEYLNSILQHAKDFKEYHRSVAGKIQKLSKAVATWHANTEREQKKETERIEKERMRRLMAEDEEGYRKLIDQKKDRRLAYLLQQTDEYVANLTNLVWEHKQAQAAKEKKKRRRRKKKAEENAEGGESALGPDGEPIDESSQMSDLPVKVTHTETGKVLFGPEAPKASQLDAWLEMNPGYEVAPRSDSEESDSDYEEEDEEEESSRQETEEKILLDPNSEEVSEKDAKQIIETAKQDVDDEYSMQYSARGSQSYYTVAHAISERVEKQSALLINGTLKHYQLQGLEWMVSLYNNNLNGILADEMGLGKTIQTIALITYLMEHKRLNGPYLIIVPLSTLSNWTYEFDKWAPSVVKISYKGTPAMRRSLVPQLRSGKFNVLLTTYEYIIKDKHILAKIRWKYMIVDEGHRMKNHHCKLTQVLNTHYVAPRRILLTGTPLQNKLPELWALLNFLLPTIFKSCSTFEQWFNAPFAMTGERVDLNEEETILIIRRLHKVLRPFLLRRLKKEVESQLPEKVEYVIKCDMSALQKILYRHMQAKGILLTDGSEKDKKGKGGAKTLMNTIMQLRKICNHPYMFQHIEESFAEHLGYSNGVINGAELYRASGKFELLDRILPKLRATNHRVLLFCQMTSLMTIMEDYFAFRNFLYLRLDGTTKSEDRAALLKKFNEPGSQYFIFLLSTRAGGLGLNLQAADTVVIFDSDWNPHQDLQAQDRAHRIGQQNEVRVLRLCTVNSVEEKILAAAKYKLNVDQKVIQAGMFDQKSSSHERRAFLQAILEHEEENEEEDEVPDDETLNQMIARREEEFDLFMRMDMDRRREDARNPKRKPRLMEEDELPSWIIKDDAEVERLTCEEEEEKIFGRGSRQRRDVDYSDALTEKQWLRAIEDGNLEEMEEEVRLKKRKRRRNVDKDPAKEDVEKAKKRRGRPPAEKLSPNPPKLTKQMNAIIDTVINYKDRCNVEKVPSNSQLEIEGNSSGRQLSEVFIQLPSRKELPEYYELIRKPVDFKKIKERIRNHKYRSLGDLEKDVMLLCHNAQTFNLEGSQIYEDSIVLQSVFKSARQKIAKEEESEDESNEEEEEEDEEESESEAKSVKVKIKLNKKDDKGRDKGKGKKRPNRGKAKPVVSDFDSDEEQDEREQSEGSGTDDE
T2 sequence (P51532 whole entry): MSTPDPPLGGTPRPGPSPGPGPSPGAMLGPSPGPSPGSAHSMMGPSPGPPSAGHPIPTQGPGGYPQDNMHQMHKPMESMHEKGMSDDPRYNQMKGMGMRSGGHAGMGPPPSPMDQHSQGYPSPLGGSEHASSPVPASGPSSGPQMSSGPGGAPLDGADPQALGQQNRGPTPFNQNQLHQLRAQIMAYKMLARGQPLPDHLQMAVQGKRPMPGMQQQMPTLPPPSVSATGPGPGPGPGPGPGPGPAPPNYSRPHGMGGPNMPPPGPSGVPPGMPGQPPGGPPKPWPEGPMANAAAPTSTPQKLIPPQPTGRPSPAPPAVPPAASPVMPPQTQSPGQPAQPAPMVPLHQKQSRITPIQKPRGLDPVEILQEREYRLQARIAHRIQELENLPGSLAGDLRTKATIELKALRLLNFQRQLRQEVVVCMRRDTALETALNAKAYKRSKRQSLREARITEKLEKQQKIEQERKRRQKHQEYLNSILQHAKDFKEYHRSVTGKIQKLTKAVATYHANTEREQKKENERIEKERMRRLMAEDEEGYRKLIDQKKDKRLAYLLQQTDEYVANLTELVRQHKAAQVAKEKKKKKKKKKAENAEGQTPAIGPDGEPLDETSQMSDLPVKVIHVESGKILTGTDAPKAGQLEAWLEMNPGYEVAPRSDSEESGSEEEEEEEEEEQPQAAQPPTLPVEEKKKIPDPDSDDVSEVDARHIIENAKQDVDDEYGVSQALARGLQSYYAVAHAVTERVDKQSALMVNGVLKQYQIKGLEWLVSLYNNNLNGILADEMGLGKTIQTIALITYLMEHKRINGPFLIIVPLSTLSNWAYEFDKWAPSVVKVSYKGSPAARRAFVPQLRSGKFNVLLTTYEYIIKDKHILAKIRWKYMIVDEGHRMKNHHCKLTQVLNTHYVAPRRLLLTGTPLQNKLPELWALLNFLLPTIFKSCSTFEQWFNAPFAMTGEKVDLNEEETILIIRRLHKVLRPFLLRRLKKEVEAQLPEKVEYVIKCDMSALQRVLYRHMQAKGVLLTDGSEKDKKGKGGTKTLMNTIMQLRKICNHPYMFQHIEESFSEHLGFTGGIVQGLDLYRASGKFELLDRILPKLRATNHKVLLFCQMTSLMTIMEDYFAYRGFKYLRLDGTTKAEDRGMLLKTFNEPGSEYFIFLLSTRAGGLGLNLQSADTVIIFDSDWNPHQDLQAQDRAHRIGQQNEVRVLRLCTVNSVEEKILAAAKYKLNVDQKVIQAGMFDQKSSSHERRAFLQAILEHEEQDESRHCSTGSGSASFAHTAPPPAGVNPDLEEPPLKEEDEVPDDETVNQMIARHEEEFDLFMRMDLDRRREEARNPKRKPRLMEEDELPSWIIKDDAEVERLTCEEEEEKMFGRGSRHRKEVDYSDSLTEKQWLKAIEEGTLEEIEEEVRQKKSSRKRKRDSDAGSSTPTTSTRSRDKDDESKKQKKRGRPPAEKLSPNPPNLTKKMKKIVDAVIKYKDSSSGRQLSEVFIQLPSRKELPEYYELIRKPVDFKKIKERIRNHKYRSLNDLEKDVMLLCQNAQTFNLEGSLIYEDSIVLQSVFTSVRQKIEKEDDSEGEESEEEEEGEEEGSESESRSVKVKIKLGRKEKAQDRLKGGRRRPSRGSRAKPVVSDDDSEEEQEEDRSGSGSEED

On to `Cc1ncsc1-c1ccc([C@H](C)NC(=O)[C@@H]2C[C@@H](O)CN2C(=O)[C@@H](c2cc(OCCN3CCC(N4CCC5(CC4)CNc4nnc(-c6ccccc6O)cc4N5)C3)no2)C(C)C)cc1` (stereo partly drawn) [Example 6, (2S,4R)-4-hydroxy-1-((2R)-2-(3-(2-(3-(3′-(2-hydroxyphenyl)-7′,8′-dihydro-5′H-spiro [piperidine-4,6′-pyrazino[2,3-c]pyridazin]-1-yl)pyrrolidin-1-yl)ethoxy)isoxazol-5-yl)-3-methylbutanoyl)-N-((S)-1-(4-(4-methylthiazol-5-yl)phenyl)ethyl) pyrrolidine-2-carboxamide], for which, in assay [1], the DC50 lay in the range of 1000 to 10000 nM and the Dmax is at most 50%. Moreover, in assay [2], the DC50 was 100 to 1000 nM and the Dmax is over 75%.
Regarding `Cc1ncsc1-c1ccc([C@H](C)NC(=O)[C@@H]2C[C@@H](O)CN2C(=O)[C@@H](c2cc(OCCN3CCC(CN4CCCC5(CNc6nnc(-c7ccccc7O)cc6N5)C4)CC3)no2)C(C)C)cc1` (stereo partly drawn) [Example 7, (2S,4R)-4-hydroxy-1-((2R)-2-(3-(2-(4-((3′-(2-hydroxyphenyl)-7′,8′-dihydro-5′H-spiro[piperidine-3,6′-pyrazino[2,3-c]pyridazin]-1-yl)methyl)piperidin-1-yl)ethoxy)isoxazol-5-yl)-3-methylbutanoyl)-N-((S)-1-(4-(4-methylthiazol-5-yl)phenyl)ethyl) pyrrolidine-2-carboxamide], the DC50 in assay [1] and in assay [2] was under 100 nM throughout. Further, the Dmax in assay [1] and in assay [2] was over 75% each time.
Turning to `Cc1ncsc1-c1ccc([C@H](C)NC(=O)[C@@H]2C[C@@H](O)CN2C(=O)[C@@H](c2cc(OCCN3CCC(CN4CCC5(CC4)CNc4nnc(-c6ccccc6O)cc45)CC3)no2)C(C)C)cc1` [Example 3, (2S,4R)-4-hydroxy-1-((R)-2-(3-(2-(4-((3′-(2-hydroxyphenyl)-6′,7′-dihydrospiro[piperidine-4,5′-pyrrolo[2,3-c]pyridazin]-1-yl)methyl)piperidin-1-yl)ethoxy)isoxazol-5-yl)-3-methylbutanoyl)-N-((S)-1-(4-(4-methylthiazol-5-yl)phenyl)ethyl) pyrrolidine-2-carboxamide], in assay [1], the DC50 was under 100 nM and the Dmax lay within 50 to 75%. Besides, in assay [2], the DC50 is at least 10000 nM and the Dmax was at most 50%.
With `Cc1ncsc1-c1ccc([C@H](C)NC(=O)[C@@H]2C[C@@H](O)CN2C(=O)[C@@H](c2cc(OCCN3CCC(N4CCC5(CC4)CNc4nnc(-c6ccccc6O)cc45)C3)no2)C(C)C)cc1` (stereo partly drawn) [Example 1, (2S,4R)-4-hydroxy-1-((2R)-2-(3-(2-(3-(3′-(2-hydroxyphenyl)-6′,7′-dihydrospiro[piperidine-4,5′-pyrrolo[2,3-c]pyridazin]-1-yl)pyrrolidin-1-yl)ethoxy)isoxazol-5-yl)-3-methylbutanoyl)-N-((S)-1-(4-(4-methylthiazol-5-yl)phenyl)ethyl) pyrrolidine-2-carboxamide], in assay [1], the DC50 is under 100 nM and the Dmax was over 75%. Also, in assay [2], the DC50 was at least 10000 nM and the Dmax is at most 50%.
For the compound `Cc1ncsc1-c1ccc([C@H](C)NC(=O)[C@@H]2C[C@@H](O)CN2C(=O)[C@@H](c2cc(OCCN3CCC(CN4CCC5(CC4)CNc4nnc(-c6ccccc6O)cc4N5)CC3)no2)C(C)C)cc1` [Example 8, (2S,4R)-4-hydroxy-1-((R)-2-(3-(2-(4-((3′-(2-hydroxyphenyl)-7′,8′-dihydro-5′H-spiro [piperidine-4,6′-pyrazino[2,3-c]pyridazin]-1-yl)methyl)piperidin-1-yl)ethoxy)isoxazol-5-yl)-3-methylbutanoyl)-N-((S)-1-(4-(4-methylthiazol-5-yl)phenyl)ethyl) pyrrolidine-2-carboxamide], in assay [1], the DC50 is under 100 nM and the Dmax is over 75%. Also, in assay [2], the DC50 was under 100 nM and the Dmax is over 75%.
Regarding `Cc1ncsc1-c1ccc([C@H](C)NC(=O)[C@@H]2C[C@@H](O)CN2C(=O)[C@@H](c2cc(OCCN3CCC(N4CCCC5(CNc6nnc(-c7ccccc7O)cc6N5)C4)CC3)no2)C(C)C)cc1` (stereo partly drawn) [Example 5, (2S,4R)-4-hydroxy-1-((2R)-2-(3-(2-(4-(3′-(2-hydroxyphenyl)-7′,8′-dihydro-5′H-spiro[piperidine-3,6′-pyrazino[2,3-c]pyridazin]-1-yl)piperidin-1-yl)ethoxy)isoxazol-5-yl)-3-methylbutanoyl)-N-((S)-1-(4-(4-methylthiazol-5-yl)phenyl)ethyl) pyrrolidine-2-carboxamide], in assay [1], the DC50 was under 100 nM and the Dmax was in the range of 50 to 75%. For the same compound, in assay [2], the DC50 is under 100 nM and the Dmax was over 75%.
`Cc1ncsc1-c1ccc([C@H](C)NC(=O)[C@@H]2C[C@@H](O)CN2C(=O)[C@@H](c2cc(OCCN3CCC(N4CCCC5(CNc6nnc(-c7ccccc7O)cc6N5)C4)C3)no2)C(C)C)cc1` (stereo partly drawn) [Example 4, (2S,4R)-4-hydroxy-1-((2R)-2-(3-(2-(3-(3′-(2-hydroxyphenyl)-7′,8′-dihydro-5′H-spiro[piperidine-3,6′-pyrazino[2,3-c]pyridazin]-1-yl)pyrrolidin-1-yl)ethoxy)isoxazol-5-yl)-3-methylbutanoyl)-N-((S)-1-(4-(4-methylthiazol-5-yl)phenyl)ethyl) pyrrolidine-2-carboxamide]: in assay [1], the DC50 was under 100 nM and the Dmax fell in the range of 50 to 75%. Besides, in assay [2], the DC50 is under 100 nM and the Dmax was over 75%.
Consider `Cc1ncsc1-c1ccc([C@H](C)NC(=O)[C@@H]2C[C@@H](O)CN2C(=O)[C@@H](c2cc(OCCN3CCC(N4CCC5(CC4)CNc4nnc(-c6ccccc6O)cc4N5)CC3)no2)C(C)C)cc1` [Example 2, (2S,4R)-4-hydroxy-1-((R)-2-(3-(2-(4-(3′-(2-hydroxyphenyl)-7′,8′-dihydro-5′H-spiro[piperidine-4,6′-pyrazino[2,3-c]pyridazin]-1-yl)piperidin-1-yl)ethoxy)isoxazol-5-yl)-3-methylbutanoyl)-N-((S)-1-(4-(4-methylthiazol-5-yl)phenyl)ethyl) pyrrolidine-2-carboxamide], for which, in assay [1], the DC50 was under 100 nM and the Dmax is 50 to 75%. Besides, in assay [2], the DC50 is under 100 nM and the Dmax is over 75%.
